# Measurements published in the supplement of paper PMC10307832.
# Compound: Cc1ccc2nc(NCCN)c3ncc(C)n3c2c1 + COc1cc2c(Oc3ccc(NC(=O)C4(C(=O)Nc5ccc(F)cc5)CC4)cc3F)ccnc2cc1OCCCN1CCOCC1 [Foretinib] (partner 0.25 µM)
# Assay: relative viability (nuclei count vs DMSO), 5 days (fraction); higher = more cells survive
# Settings: first compound 4 µM
# Outline: (§1)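 For relative viability, nuclei counts in treated wells were divided by those in vehicle wells. Lung cancer cell lines had been pin-tool dosed in 1536-well plates the day after seeding and cultured for 5 days, then fixed and stained in one step (final 0.05% Triton X-100, 1% formaldehyde, 1 ug/ml Hoechst) and imaged at 4×. Doses were one drug alone or a fixed anchor-drug dose plus five library-drug doses (not always all listed) in √10 steps, and values are duplicate-plate medians.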
row,Cell Line,relative viability
1,NCI-H1437,1.2

# Compound: O=C(/C=C/c1ccccc1)NC(NC(=S)Nc1cccc2cccnc12)C(Cl)(Cl)Cl [Salubrinal] + Cc1nc(NC(=O)N2CCC[C@H]2C(N)=O)sc1-c1ccnc(C(C)(C)C(F)(F)F)c1 [Alpelisib] (partner 2 µM)
# Assay: as above
# Settings: first compound 0.08 µM
# Outline: as §1
row,Cell Line,relative viability
1,LK-2,1.33
2,NCI-H2087,1.14
3,NCI-H358,1.03
4,NCI-H2170,0.883
5,H3255,0.913
6,LOU-NH91,0.781
7,NCI-H1793,1
8,NCI-H2405,0.8
9,HOP-62,0.861
10,LU99A,0.644
11,BEN,1.23
12,HARA,0.948
13,HCC-78,0.345
14,NCI-H322M,0.783
15,LCLC-97TM1,0.258
16,A-427,1.06
17,NCI-H441,0.832

row,Cell Line,relative viability
1,NCI-H1734,0.721
2,NCI-H460,0.615
3,NCI-H2347,1.11
4,NCI-H1395,1.19
5,201T,1.07
6,NCI-H1915,1.06
7,HCC-827,0.995
8,LXF-289,1.13
9,NCI-H23,0.839
10,NCI-H647,1.47
11,CAL-12T,1.6
12,NCI-H1651,1.02
13,EPLC-272H,1.01
14,NCI-H1355,0.955
15,NCI-H3122,0.832
16,NCI-H1437,1.12

# Same assay, conditions: first compound 0.253 µM
row,Cell Line,relative viability
1,LK-2,1.07
2,NCI-H2087,0.861
3,NCI-H358,0.676
4,NCI-H2170,0.703
5,H3255,0.676
6,LOU-NH91,0.692
7,NCI-H1793,0.722
8,NCI-H2405,0.845
9,HOP-62,1.26
10,LU99A,0.559
11,BEN,0.82
12,HARA,0.931
13,HCC-78,0.377
14,NCI-H322M,0.849
15,LCLC-97TM1,0.302
16,A-427,1.16
17,NCI-H441,0.61

row,Cell Line,relative viability
1,NCI-H1734,0.695
2,NCI-H460,0.358
3,NCI-H2347,0.928
4,NCI-H1395,1.39
5,201T,0.999
6,NCI-H1915,1.08
7,HCC-827,1.07
8,LXF-289,0.956
9,NCI-H23,0.717
10,NCI-H647,0.438
11,CAL-12T,0.712
12,NCI-H1651,0.565
13,EPLC-272H,0.798
14,NCI-H1355,0.942
15,NCI-H3122,0.762
16,NCI-H1437,0.782

# Same assay, conditions: first compound 0.8 µM
row,Cell Line,relative viability
1,LK-2,1.23
2,NCI-H2087,1.05
3,NCI-H358,0.886
4,NCI-H2170,0.859
5,H3255,0.762
6,LOU-NH91,0.72
7,NCI-H1793,0.837
8,NCI-H2405,0.711
9,HOP-62,0.95
10,LU99A,0.66
11,BEN,1.3
12,HARA,0.848
13,HCC-78,0.349
14,NCI-H322M,0.863
15,LCLC-97TM1,0.254
16,A-427,1.17
17,NCI-H441,1.01

row,Cell Line,relative viability
1,NCI-H1734,0.833
2,NCI-H460,0.433
3,NCI-H2347,1.25
4,NCI-H1395,0.999
5,201T,1.05
6,NCI-H1915,1.11
7,HCC-827,0.954
8,LXF-289,1.13
9,NCI-H23,0.763
10,NCI-H647,1.54
11,CAL-12T,1.31
12,NCI-H1651,1.07
13,EPLC-272H,1.07
14,NCI-H1355,0.884
15,NCI-H3122,0.874
16,NCI-H1437,1.15

# Same assay, conditions: first compound 2.53 µM
row,Cell Line,relative viability
1,LK-2,1.19
2,NCI-H2087,1.33
3,NCI-H358,0.792
4,NCI-H2170,0.811
5,H3255,0.693
6,LOU-NH91,0.749
7,NCI-H1793,0.798
8,NCI-H2405,0.79
9,HOP-62,1.03
10,LU99A,0.476
11,BEN,1
12,HARA,0.937
13,HCC-78,0.307
14,NCI-H322M,0.788
15,A-427,1.16
16,NCI-H441,0.709

row,Cell Line,relative viability
1,NCI-H1734,0.737
2,NCI-H460,0.419
3,NCI-H2347,1.06
4,NCI-H1395,1.08
5,201T,1.02
6,NCI-H1915,1.06
7,HCC-827,0.985
8,LXF-289,1.08
9,NCI-H23,0.685
10,NCI-H647,1.25
11,CAL-12T,1.17
12,EPLC-272H,0.996
13,NCI-H1355,0.852
14,NCI-H3122,0.795
15,NCI-H1437,0.94

# Same assay, conditions: first compound 8 µM
row,Cell Line,relative viability
1,LK-2,1.08
2,NCI-H2087,1.09
3,NCI-H358,0.675
4,NCI-H2170,0.706
5,H3255,0.769
6,LOU-NH91,0.697
7,NCI-H1793,0.617
8,NCI-H2405,0.831
9,HOP-62,1.21
10,LU99A,0.53
11,BEN,1.03
12,HARA,0.78
13,HCC-78,0.316
14,NCI-H322M,0.739
15,LCLC-97TM1,0.276
16,A-427,1.15
17,NCI-H441,0.645

row,Cell Line,relative viability
1,NCI-H1734,0.749
2,NCI-H460,0.451
3,NCI-H2347,1.08
4,NCI-H1395,0.911
5,201T,1.01
6,NCI-H1915,1.04
7,HCC-827,0.963
8,LXF-289,0.966
9,NCI-H23,0.976
10,NCI-H647,1.08
11,CAL-12T,1.02
12,NCI-H1651,1.02
13,EPLC-272H,0.787
14,NCI-H1355,0.779
15,NCI-H3122,0.793
16,NCI-H1437,0.969
